Key:
[1] = system: NLRP3; test: LPS-induced NLRP3 protein expression in RAW 264.7 cells (Western blot); format: cell-based, murine; conditions: KMU-470 0.1, 0.5, 1 μM 30 min, LPS 50 ng/mL 6 h
Procedure: (§1) Figure 6 Inhibitory effect of KMU-470 on LPS-induced up-regulation of pro-inflammatory cytokines and activation of NLRP3 inflammasome in RAW 264.7 cells. (A–C) Cells were treated with KMU-470 for 30 min and stimulated with LPS 50 ng/mL for 6 h. The levels of IL-1β, TNF-α, and IL-6 were determined using real time PCR. *** p < 0.001, *p < 0.05. (D) Cells were pre-treated with 0.1, 0.5, and 1 μM of KMU-470 for 30 min and treated with LPS 50 ng/mL for 6 h, respectively. Whole cell lysates were isolated and used to measure the protein expression levels of pro-IL-1β and β-actin by Western blot analysis. (E) Cells were pre-treated with 0.1, 0.5, and 1 μM of KMU-470 for 30 min and treated with LPS 50 ng/mL for 6 h, respectively. Whole cell lysates were isolated and used to measure the protein expression levels of […], ASC, pro-caspase-1, pro-IL-1β, and β-actin by Western blot analysis.
(§2) RAW 264.7 cells were pre-treated with KMU-470 (0.5–1 μM/mL) for 24 h and stimulated with LPS (50 ng/mL) for 6 h. […] Immunoreactive proteins were detected using the ELC Western blot detection system kit (Millipore). Signal intensity was measured using the Chemi Image documentation system (Fusion Fx7, VILBER LOUTMAT). Protein expression levels were quantified using the Image J program.

[2] = biological target: T1, JAK3 (h) (Homo sapiens, UniProt P52333); test: Kinase profiling (Eurofins Cerep); format: biochemical; conditions: ATP at Km
T1 construct: purchased Eurofins Cerep S.A. (kinase profiler service)
Procedure: (§3) To test the specificity of the novel PIM kinase inhibitor KMU-470, a kinase profiler service was conducted by Eurofins Cerep S.A. The screening was performed with 1 and 10 μM of compound and a concentration of ATP at the Km value for each individual kinase and kinase substrate according to Eurofin’s protocols.

[3] = biological target: T2, BTK (h) (Homo sapiens, UniProt Q06187); test: Kinase profiling (Eurofins Cerep); format: biochemical; conditions: KMU-470 10 μM; ATP at Km
T2 construct: purchased Eurofins Cerep S.A. (kinase profiler service)
Procedure: as §3

[4] = biological target: T3, JAK2 (h) (Homo sapiens, UniProt O60674); test: Kinase profiling (Eurofins Cerep); format: biochemical; conditions: ATP at Km
T3 construct: purchased Eurofins Cerep S.A. (kinase profiler service)
Procedure: as §3

[5] = biological target: T4, Tec (h) activated (Homo sapiens, UniProt P42680); test: Kinase profiling (Eurofins Cerep); format: biochemical; conditions: KMU-470 10 μM; ATP at Km
T4 construct: purchased Eurofins Cerep S.A. (kinase profiler service)
Procedure: as §3

[6] = biological target: T5, Syk (h) (Homo sapiens, UniProt P43405); test: Kinase profiling (Eurofins Cerep); format: biochemical; conditions: ATP at Km
T5 construct: purchased Eurofins Cerep S.A. (kinase profiler service)
Procedure: as §3

[7] = system: JNK; test: LPS-induced phosphorylation of JNK in RAW 264.7 cells (Western blot); format: cell-based, murine; conditions: KMU-470 1 μM 24 h pre-treatment, LPS 50 ng/mL
Procedure: Figure 5 Effect of KMU-470 on LPS-induced phosphorylation of MAPKs/ IKKs/ NF-κB in RAW 264.7 cells. (A) Cells were pre-treated with 1μM of KMU-470 for 24 h and stimulated with LPS (50 ng/mL) at the indicated times. (C) Cells were pre-treated with 0.5 and 1μM of KMU-470 for 30 min prior to LPS treatment. Total proteins were isolated after 6 h exposure to LPS (50 ng/mL). The protein expression level of MAPKs, p-IKKα/β, and p-NF-κB were assessed using Western blot analyses. (B,D) The relative optical densities of MAPKs, p-IKKα/β, and p-NF-κB bands were analyzed by the Image-J program. *** p < 0.001.
RAW 264.7 cells were pre-treated with KMU-470 (0.5–1 μM/mL) for 24 h and stimulated with LPS (50 ng/mL) for 6 h. After stimulation, total cells were harvested, washed with PBS buffer, and then the total protein was extracted with a RIPA buffer (0.1 mM sodium orthovanadate, 137 mM NaCl, 15 mM EGTA, 0.1% Triton X-100, 25 mM MOPS, 15 mM MgCl2, 100 μM phenylmethylsulfonyl fluoride, and 20 μM leupeptin, adjusted to pH 7.2). […] Immunoreactive proteins were detected using the ELC Western blot detection system kit (Millipore). Signal intensity was measured using the Chemi Image documentation system (Fusion Fx7, VILBER LOUTMAT). Protein expression levels were quantified using the Image J program.

[8] = biological target: T6, PIM-2 (Homo sapiens, UniProt Q9P1W9); test: PIM kinase IMAP fluorescence polarization IC50 determination; format: biochemical; conditions: ATP 5 μM; average of two independent experiments; read-out: Inhibitory Activity IC50 PIM-2
T6 construct: purchased Abcam (Cambridge, UK)
Procedure: (§4) The recombinant PIM kinase, human 5-FAM-labelled Bad peptide substrate, and ATP were prepared in a reaction buffer containing 10 mM HEPES (pH 7.2), 10 mM MgCl2, 0.05% NaN3, 0.01% Triton X-100, and 2 mM DTT. […] Reagents were added to the plate as follows: 2.5 μL compound, 2.5 μL PIM kinase, 2.5 μL ATP, and 2.5 μL 5-FAM-labelled Bad peptide substrate (a final concentration of 100 nM). The final concentrations of ATP in the kinase reactions were 30 μM, 5 μM, and 20 μM for PIM1, PIM2, and PIM3, respectively. […] Kinase reactions were incubated at room temperature for 90 min, and then the reactions were stopped by the addition of 20 μL of IMAP binding reagent (solution containing 75% Buffer A: 25% Buffer B, and a 1 in 600 dilution of beads). After quenching, the plates were incubated at room temperature for 2 h, and then the fluorescence polarization measurements were carried out on an Infinity F200 (Tecan, Männedorf, Zürich, Switzerland). The percentage of inhibition was calculated for each compound concentration and the data were fitted to the equation of a 4-parameter logistic curve. IC50 values were obtained using GraphPad Prism (GraphPad Software, Inc., La Jolla, CA, USA).

[9] = biological target: T7, PIM-3 (Homo sapiens, UniProt Q86V86); test: as above; format: biochemical; conditions: ATP 20 μM; average of two independent experiments; read-out: Inhibitory Activity IC50 PIM-3
T7 construct: purchased Millipore (Burlington, MA, USA)
Procedure: as §4

[10] = biological target: T8, PIM-1 (Homo sapiens, UniProt P11309); test: as above; format: biochemical; conditions: ATP 30 μM; average of two independent experiments; read-out: Inhibitory Activity IC50 PIM-1
T8 construct: purchased Life Technologies (Carlsbad, CA, USA)
Procedure: as §4

[11] = system: pro-caspase-1; test: Pro-caspase-1 protein expression in LPS-treated RAW 264.7 cells (Western blot); format: cell-based, murine; conditions: KMU-470 0.1, 0.5, 1 μM 30 min, LPS 50 ng/mL 6 h
Procedure: as §1, §2

T1 sequence (P52333 whole entry): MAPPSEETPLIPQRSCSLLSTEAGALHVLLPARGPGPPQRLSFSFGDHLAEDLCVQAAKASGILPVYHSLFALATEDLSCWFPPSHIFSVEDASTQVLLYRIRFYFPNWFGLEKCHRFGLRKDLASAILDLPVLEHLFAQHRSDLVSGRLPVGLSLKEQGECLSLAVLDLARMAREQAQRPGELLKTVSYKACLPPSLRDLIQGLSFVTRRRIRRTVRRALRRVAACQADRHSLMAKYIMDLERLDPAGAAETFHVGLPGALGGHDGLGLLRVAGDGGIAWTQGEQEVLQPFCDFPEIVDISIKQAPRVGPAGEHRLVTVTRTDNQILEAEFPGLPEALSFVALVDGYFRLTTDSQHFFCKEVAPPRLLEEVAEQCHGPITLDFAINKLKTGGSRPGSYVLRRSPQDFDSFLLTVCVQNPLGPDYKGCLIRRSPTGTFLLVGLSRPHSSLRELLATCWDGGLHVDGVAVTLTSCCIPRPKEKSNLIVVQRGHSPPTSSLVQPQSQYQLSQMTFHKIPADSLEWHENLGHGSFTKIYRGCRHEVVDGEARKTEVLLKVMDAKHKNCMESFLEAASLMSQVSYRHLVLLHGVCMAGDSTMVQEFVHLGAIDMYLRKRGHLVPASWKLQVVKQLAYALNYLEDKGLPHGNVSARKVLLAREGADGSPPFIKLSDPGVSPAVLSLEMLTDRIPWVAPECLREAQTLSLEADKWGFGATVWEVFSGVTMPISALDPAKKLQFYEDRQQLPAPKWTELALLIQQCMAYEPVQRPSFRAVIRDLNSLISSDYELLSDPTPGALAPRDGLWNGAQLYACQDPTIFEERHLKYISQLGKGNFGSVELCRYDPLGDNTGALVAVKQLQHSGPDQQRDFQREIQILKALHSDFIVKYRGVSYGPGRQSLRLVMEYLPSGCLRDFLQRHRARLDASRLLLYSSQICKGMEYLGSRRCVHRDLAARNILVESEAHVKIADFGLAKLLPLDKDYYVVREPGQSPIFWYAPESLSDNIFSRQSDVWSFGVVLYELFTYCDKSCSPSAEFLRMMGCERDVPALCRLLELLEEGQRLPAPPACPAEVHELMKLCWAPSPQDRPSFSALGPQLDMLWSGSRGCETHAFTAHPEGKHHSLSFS
T3 sequence (O60674 whole entry): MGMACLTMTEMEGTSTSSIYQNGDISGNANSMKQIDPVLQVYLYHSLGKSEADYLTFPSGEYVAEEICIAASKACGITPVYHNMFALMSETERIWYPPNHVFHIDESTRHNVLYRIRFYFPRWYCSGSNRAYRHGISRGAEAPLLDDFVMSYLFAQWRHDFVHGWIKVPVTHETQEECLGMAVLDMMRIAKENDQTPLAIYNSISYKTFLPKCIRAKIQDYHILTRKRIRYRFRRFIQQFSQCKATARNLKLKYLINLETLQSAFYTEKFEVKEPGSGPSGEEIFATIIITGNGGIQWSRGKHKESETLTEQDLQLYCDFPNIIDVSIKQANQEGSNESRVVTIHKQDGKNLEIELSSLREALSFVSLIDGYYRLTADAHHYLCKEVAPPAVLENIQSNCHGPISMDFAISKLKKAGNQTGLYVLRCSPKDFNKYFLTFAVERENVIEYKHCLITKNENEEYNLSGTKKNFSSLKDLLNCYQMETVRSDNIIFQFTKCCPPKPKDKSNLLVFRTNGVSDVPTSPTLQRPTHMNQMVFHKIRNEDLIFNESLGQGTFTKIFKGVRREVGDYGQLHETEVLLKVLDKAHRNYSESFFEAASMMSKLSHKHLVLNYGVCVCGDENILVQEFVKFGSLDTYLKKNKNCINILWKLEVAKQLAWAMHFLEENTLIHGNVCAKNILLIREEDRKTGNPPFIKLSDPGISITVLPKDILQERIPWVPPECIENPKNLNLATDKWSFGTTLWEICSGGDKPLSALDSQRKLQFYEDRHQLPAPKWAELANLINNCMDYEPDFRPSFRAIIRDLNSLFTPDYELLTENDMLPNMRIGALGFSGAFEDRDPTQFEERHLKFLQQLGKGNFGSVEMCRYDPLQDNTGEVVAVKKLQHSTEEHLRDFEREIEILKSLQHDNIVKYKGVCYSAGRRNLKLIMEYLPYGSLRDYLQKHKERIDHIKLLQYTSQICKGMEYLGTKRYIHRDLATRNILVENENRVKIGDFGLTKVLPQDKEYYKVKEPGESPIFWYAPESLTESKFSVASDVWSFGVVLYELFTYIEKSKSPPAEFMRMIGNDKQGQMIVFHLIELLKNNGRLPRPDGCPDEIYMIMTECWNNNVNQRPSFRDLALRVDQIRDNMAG
T6 sequence (Q9P1W9 whole entry, species assumed): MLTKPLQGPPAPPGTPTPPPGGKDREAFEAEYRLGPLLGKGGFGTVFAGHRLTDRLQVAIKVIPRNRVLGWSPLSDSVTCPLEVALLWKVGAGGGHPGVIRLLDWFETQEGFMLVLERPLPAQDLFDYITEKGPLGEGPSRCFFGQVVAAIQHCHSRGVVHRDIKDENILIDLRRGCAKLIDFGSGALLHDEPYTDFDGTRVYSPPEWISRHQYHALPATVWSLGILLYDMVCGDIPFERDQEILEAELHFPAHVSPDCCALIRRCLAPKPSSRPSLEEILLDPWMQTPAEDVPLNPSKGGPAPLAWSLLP
T8 sequence (P11309 whole entry, species assumed): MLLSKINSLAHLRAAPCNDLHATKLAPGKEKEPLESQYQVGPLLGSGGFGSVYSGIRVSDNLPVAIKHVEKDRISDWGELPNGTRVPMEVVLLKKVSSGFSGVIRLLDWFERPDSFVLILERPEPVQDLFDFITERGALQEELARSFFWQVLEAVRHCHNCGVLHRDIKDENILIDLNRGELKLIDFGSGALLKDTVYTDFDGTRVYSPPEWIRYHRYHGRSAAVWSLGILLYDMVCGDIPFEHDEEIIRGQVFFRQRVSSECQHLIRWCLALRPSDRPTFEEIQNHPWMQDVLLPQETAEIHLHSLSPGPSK
T2 sequence (Q06187 whole entry): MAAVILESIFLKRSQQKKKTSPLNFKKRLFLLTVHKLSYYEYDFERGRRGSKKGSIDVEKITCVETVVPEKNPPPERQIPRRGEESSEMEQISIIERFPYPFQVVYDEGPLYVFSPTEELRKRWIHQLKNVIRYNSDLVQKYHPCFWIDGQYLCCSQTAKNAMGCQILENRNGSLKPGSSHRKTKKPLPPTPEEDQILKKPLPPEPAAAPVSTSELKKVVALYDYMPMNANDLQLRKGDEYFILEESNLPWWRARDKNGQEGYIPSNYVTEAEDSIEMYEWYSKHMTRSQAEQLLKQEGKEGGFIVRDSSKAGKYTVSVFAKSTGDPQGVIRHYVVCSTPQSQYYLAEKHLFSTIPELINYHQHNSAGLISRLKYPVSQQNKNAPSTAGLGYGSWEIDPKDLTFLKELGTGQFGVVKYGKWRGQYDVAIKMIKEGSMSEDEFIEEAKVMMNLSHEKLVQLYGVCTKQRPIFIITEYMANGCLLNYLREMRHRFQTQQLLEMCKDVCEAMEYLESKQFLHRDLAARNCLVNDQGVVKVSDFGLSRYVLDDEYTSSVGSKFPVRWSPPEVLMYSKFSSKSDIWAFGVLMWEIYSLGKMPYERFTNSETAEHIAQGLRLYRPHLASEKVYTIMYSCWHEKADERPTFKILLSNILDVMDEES
T4 sequence (P42680 whole entry): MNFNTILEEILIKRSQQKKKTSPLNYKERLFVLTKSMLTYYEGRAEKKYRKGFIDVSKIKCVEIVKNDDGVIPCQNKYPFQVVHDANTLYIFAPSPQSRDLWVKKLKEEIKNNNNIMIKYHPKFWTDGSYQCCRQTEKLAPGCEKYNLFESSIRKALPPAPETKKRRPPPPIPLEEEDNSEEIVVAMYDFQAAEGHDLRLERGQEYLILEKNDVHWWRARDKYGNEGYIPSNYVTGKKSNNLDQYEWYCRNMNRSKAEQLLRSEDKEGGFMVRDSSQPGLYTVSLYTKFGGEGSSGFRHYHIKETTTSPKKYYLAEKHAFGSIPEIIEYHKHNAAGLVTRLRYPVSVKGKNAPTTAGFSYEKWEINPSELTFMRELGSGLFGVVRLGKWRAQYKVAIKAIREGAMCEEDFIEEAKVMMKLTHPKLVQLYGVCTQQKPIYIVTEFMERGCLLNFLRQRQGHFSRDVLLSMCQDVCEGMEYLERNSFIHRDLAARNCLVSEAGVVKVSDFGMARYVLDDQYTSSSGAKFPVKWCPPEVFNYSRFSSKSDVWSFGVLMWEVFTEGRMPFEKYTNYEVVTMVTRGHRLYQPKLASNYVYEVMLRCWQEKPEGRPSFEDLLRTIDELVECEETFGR

## CN(C)CCNc1cncc(-c2ccc3c(c2)/C(=C/c2cnc[nH]2)C(=O)N3)n1 [KMU-470, (Z)-3-((1H-Imidazol-5-yl)methylene)-5-(6-((2-(dimethylamino)ethyl)amino)pyrazin-2-yl)indolin-2-one]
[1]
  Expression of NLRP3 protein compared with LPS alone group: marked decrease
[2]; KMU-470 1 μM
  Activity (% Control) JAK3 (h): 38 % Control
[2]; KMU-470 10 μM
  Activity (% Control) JAK3 (h): 15 % Control
[3]
  Activity (% Control) BTK (h): 80 % Control
[4]; KMU-470 1 μM
  Activity (% Control) JAK2 (h): 107 % Control
[4]; KMU-470 10 μM
  Activity (% Control) JAK2 (h): 23 % Control
[5]
  Activity (% Control) Tec (h) activated: 71 % Control
[6]; KMU-470 1 μM
  Activity (% Control) Syk (h): 82 % Control
[6]; KMU-470 10 μM
  Activity (% Control) Syk (h): 21 % Control
[7]
  LPS-induced phosphorylation of JNK: significantly inhibited
[8]
  IC50: 220 nM
[9]
  IC50: 6.9 nM
[10]
  IC50: 5.6 nM
[11]
  Pro-caspase-1 expression: not changed
